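Step 1: Grow cells in 96-well plates. Step 2: Expose to compound for 48 hours at 5 concentrations. Step 3: Interpolate endpoints linearly; if unreached, use highest concentration. At the GI50, growth is halved.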 Active and inactive are the calls of the source. Cut-off read from the data, not from the text of the source: active = GI50 up to about 1.1 µM and inactive = higher.
Assays:
Experiment in all cases: NCI-60 cell line screen, 48 h
ACHN = system: ACHN
CAKI-1 = system: CAKI-1
COLO 205 = system: COLO 205
HCT-15 = system: HCT-15
HL-60 = system: HL-60
HOP-92 = system: HOP-92
KM12 = system: KM12
OVCAR-4 = system: OVCAR-4
OVCAR-5 = system: OVCAR-5
OVCAR-8 = system: OVCAR-8
PC-3 = system: PC-3
RPMI-8226 = system: RPMI-8226
SK-MEL-28 = system: SK-MEL-28
SK-MEL-2 = system: SK-MEL-2
SK-MEL-5 = system: SK-MEL-5
SK-OV-3 = system: SK-OV-3
SNB-19 = system: SNB-19
U-251 = system: U-251
UACC-257 = system: UACC-257
UACC-62 = system: UACC-62

Compound	GI50 (ACHN)	GI50 (CAKI-1)	GI50 (COLO 205)	GI50 (HCT-15) [µM]	GI50 (HL-60)	GI50 (HOP-92)	GI50 (KM12)	GI50 (OVCAR-4)	GI50 (OVCAR-5)	GI50 (OVCAR-8)	GI50 (PC-3)	GI50 (RPMI-8226)	GI50 (SK-MEL-28)	GI50 (SK-MEL-2)	GI50 (SK-MEL-5)	GI50 (SK-OV-3)	GI50 (SNB-19)	GI50 (U-251)	GI50 (UACC-257)	GI50 (UACC-62)
O=c1c2cnccc2cc2c3ccccc3ccn12	19.3 µM (inactive)	9.89 µM (inactive)	63.2 µM (inactive)	23.1	17.7 µM (inactive)	> 100 µM (inactive)	5.64 µM (inactive)	50.4 µM (inactive)	> 100 µM (inactive)	11.6 µM (inactive)	77.8 µM (inactive)	19.9 µM (inactive)	> 100 µM (inactive)	> 100 µM (inactive)	46.1 µM (inactive)	> 100 µM (inactive)	> 100 µM (inactive)	68.4 µM (inactive)	> 100 µM (inactive)	4.7 µM (inactive)
COc1ccc(Nc2nnc(-c3nsc4ccccc34)s2)cc1	11.1 µM (inactive)	54.5 µM (inactive)	63.7 µM (inactive)	62.8	> 70.1 µM (inactive)	9.73 µM (inactive)	> 100 µM (inactive)	2.47 µM (inactive)	> 100 µM (inactive)	49.8 µM (inactive)	> 100 µM (inactive)	22.9 µM (inactive)	> 100 µM (inactive)	78.7 µM (inactive)	> 84.3 µM (inactive)	2.52 µM (inactive)	> 53.1 µM (inactive)	> 47.1 µM (inactive)	> 100 µM (inactive)	> 100 µM (inactive)
COc1nc2ncc([C@@H](O)[C@H](O)CO)nc2c(=O)n1C	> 100 µM (inactive)	> 100 µM (inactive)	> 100 µM (inactive)	> 100	> 100 µM (inactive)	> 100 µM (inactive)	> 100 µM (inactive)	> 100 µM (inactive)	> 100 µM (inactive)	> 100 µM (inactive)	> 100 µM (inactive)	> 100 µM (inactive)	> 100 µM (inactive)	> 100 µM (inactive)	> 100 µM (inactive)	> 100 µM (inactive)	> 100 µM (inactive)	> 100 µM (inactive)	> 100 µM (inactive)	> 100 µM (inactive)
O=C(OCCN=c1c2ccccc2ccc2ccccc12)c1ccc([N+](=O)[O-])cc1	> 100 µM (inactive)	> 100 µM (inactive)	> 100 µM (inactive)	> 100	> 100 µM (inactive)	> 100 µM (inactive)	> 100 µM (inactive)	> 100 µM (inactive)	> 100 µM (inactive)	> 100 µM (inactive)	> 100 µM (inactive)	> 100 µM (inactive)	> 100 µM (inactive)	> 100 µM (inactive)	> 100 µM (inactive)	> 100 µM (inactive)	> 100 µM (inactive)	> 100 µM (inactive)	> 100 µM (inactive)	> 100 µM (inactive)
COc1cc(/C=C2/CCCc3ccccc3C2=O)cc(OC)c1OC	15.8 µM (inactive)	18.8 µM (inactive)	18.2 µM (inactive)	12.6	2.72 µM (inactive)	14.8 µM (inactive)	11.7 µM (inactive)	17.2 µM (inactive)	30.6 µM (inactive)	13.7 µM (inactive)	10.1 µM (inactive)	2.63 µM (inactive)	22 µM (inactive)	20.6 µM (inactive)	3.27 µM (inactive)	25.5 µM (inactive)	32.5 µM (inactive)	15.5 µM (inactive)	12.9 µM (inactive)	16.4 µM (inactive)
O=C(Oc1cncc(Cl)c1)c1cc2ccccc2sc1=O	86.1 µM (inactive)	> 100 µM (inactive)	49.9 µM (inactive)	38.5	47.6 µM (inactive)	71.4 µM (inactive)	40.9 µM (inactive)	73.6 µM (inactive)	> 100 µM (inactive)	> 100 µM (inactive)	33 µM (inactive)	21.1 µM (inactive)	46.5 µM (inactive)	24.7 µM (inactive)	31.7 µM (inactive)	> 100 µM (inactive)	92.5 µM (inactive)	49.8 µM (inactive)	> 100 µM (inactive)	29 µM (inactive)
COc1c(Cl)cc(NC(=S)C#N)cc1Cl	25.6 µM (inactive)	22.7 µM (inactive)	17.8 µM (inactive)	18.4	> 100 µM (inactive)	22.6 µM (inactive)	30.4 µM (inactive)	29.2 µM (inactive)	37.1 µM (inactive)	28.4 µM (inactive)	24.3 µM (inactive)	22.8 µM (inactive)	26.7 µM (inactive)	23.4 µM (inactive)	15.8 µM (inactive)	29.7 µM (inactive)	32.9 µM (inactive)	17.7 µM (inactive)	19.9 µM (inactive)	15.1 µM (inactive)
